Here are results for eleven molecules from patent US12528826B2, “[1,4]oxazepino[2,3-c]quinolinone derivatives as BCL6 inhibitors” (Cancer Research Technology Limited, priority 2019, dated 2026).

Experiment [1] deals with T1, Trx-6×His-BCL6 (human BCL6 BTB domain covering amino-acid sequence 5-129) (Homo sapiens, UniProt P41182).
T1 construct: made in house
As to the kind of experiment: HTRF assay (BCL6 / BCOR peptide). The format is binding. As to conditions: 1 nM Trx-6×His-BCL6, 300 nM BCOR-AF633 peptide, 2 hours incubation at room temperature; for IC50: read-out: HTRF avg pIC50 (converted). How it is done: After 2 hours incubation at room temperature the plate was read on a Pherastar FSX (BMG Labtech) plate reader equipped with 337 nm laser excitation filter, a first emission filter at 620 nm and a second emission filter at 665 nm. The % inhibition at each concentration was calculated by normalising FRET ratio to the appropriate high (DMSO with all reagents) and low (DMSO without BCL6) controls.
(In TR-FRET formats the signal depends on donor and acceptor labels being close together.)

The subject of experiment [2] is GC B cells and non-GC B cells in spleen cell cultures. Briefly: Mouse splenocyte flow cytometry immunology experiments. The format is cell-based. The protocol: Male C57BL/6 mice were immunised in both flanks subcutaneously with CFA (100 μl of 4 mg/ml CFA). On day 8 the animals were terminated, spleens harvested and processed to single cell suspensions.
Splenocytes were resuspended in complete media (RPMI 1640+10% foetal calf serum, supplemented with 4 mM L-glutamine, 100 U/ml-100 μg/ml) penicillin/streptomycin and 50 μM B-mercaptoethanol (Gibco)). The cells were activated for 48 hours with 2 μg/ml αCD40 (ThermoFisher)+[…] IL-4 (Bio-techne) at 37° C. in a humidified CO2 incubator. Example 4b was added at the same time as activation in an 8-point dose titration. Following the culture period, cells were collected, washed with PBS (Gibco) and selected wells were counted using a LUNA™ Counter (Logos Biosystems).
Harvested cells were washed in PBS (Gibco) and stained with Invitrogen™ eBioscience™ Fixable Viability Dye eFluor 780 (Fisher scientific), then FcR blocked (Miltenyi Biotec) and stained with surface receptor antibodies (see Table 3 below). Cells were then washed in flow cytometry buffer (PBS supplemented with 1% BSA and 0.05% azide) and the secondary streptavidin was added. Cells were then washed, fixed and permeabilized in Transcription factor staining buffer (Fisher scientific); according to the manufacturer's instructions. Intracellular antibodies were then added to the samples. Following final washes, cells were fixed in 1% PFA and acquired on a BD LSR Fortessa™ (BD Bioscience). All analysis was carried out using FlowJo software v10.
In order to test the hypothesis that degradation or inhibition of Bcl6 may be able to modulate primary cells of the immune system, resulting in a decrease in their potential to generate autoantibodies, the above experiment was performed. Mice were immunised in order to drive the generation of germinal centre (GC) B cells. Spleens were then cultured in the presence or absence of a Bcl6 inhibitor (Example 4b) for 48 hours and non-GC B cells or GC B cells were identified using flow cytometry (FIG. 1).
Background: A flow cytometer gives signals particle by particle.

Turning to `Cn1c(=O)c2c(c3cc(Nc4ccnc(F)c4Cl)ccc31)N[C@@H](C1CC1)C(F)(F)CO2` [Example 4b, (S)-10-((3-chloro-2-fluoropyridin-4-yl)amino)-2-cyclopropyl-3,3-difluoro-7-methyl-1,2,3,4-tetrahydro-[1,4]oxazepino[2,3-c]quinolin-6(7H)-one], the IC50 in experiment [1] was 6.31 nM. The “numbers of GC B cells as determined by expression of the lineage markers GL7 and CD95” value in experiment [2] (spleen cell cultures, 48 hours, at 10 μM (FIG. 4)) is “decreased”. In addition, in experiment [2] (splenocytes of CFA-immunised C57BL/6 mice, activated 48 hours with αCD40 + IL-4, various concentrations (FIG. 2)), the “BCL6 expression in non-GC B cells (GeoMFI, flow cytometry)” value is recorded as “did not result in a reduction”. Moreover, the “Blimp expression by GC B cells (GeoMFI, flow cytometry)” value in experiment [2] (splenocytes of CFA-immunised C57BL/6 mice, activated 48 hours with αCD40 + IL-4, various concentrations (FIG. 3)) is “increase”. As for `C[C@H]1C[C@@H](O)CN(c2cc(Nc3ccc4c(c3)c3c(c(=O)n4C)OCC(F)(F)[C@H](C4CC4)N3)c(F)cn2)C1` [Example 13f05, (S)-2-cyclopropyl-3,3-difluoro-10-((5-fluoro-2-((3R,5S)-3-hydroxy-5-methylpiperidin-1-yl)pyridin-4-yl)amino)-7-methyl-1,2,3,4-tetrahydro-[1,4]oxazepino[2,3-c]quinolin-6(7H)-one], the IC50 in experiment [1] is 6.61 nM. Same read-out and setting: next, `CC1CN(c2ncc(F)c(Nc3ccc4c(c3)c3c(c(=O)n4C)OCC(F)(F)[C@H](C4CC4)N3)n2)CC(C)C1(F)F` (stereo partly drawn) [Example 13p01, (2S)-2-cyclopropyl-10-((2-(4,4-difluoro-3,5-dimethylpiperidin-1-yl)-5-fluoropyrimidin-4-yl)amino)-3,3-difluoro-7-methyl-1,2,3,4-tetrahydro-[1,4]oxazepino[2,3-c]quinolin-6(7H)-one]: 85.1 nM. Still for that read-out and setting: next, `Cn1c(=O)c2c(c3cc(Nc4nc(N5CCOCC5)ncc4F)ccc31)N[C@@H](C1CC1)C(F)(F)CO2` [Example 13p06, (S)-2-cyclopropyl-3,3-difluoro-10-((5-fluoro-2-morpholinopyrimidin-4-yl)amino)-7-methyl-1,2,3,4-tetrahydro-[1,4]oxazepino[2,3-c]quinolin-6(7H)-one]: 11.7 nM; `C[C@H]1CN(c2ncc(F)c(Nc3ccc4c(c3)c3c(c(=O)n4C)OCC(F)(F)[C@H](C4CC4)N3)n2)CCO1` [Example 13p08, (S)-2-cyclopropyl-3,3-difluoro-10-((5-fluoro-2-((S)-2-methylmorpholino)pyrimidin-4-yl)amino)-7-methyl-1,2,3,4-tetrahydro-[1,4]oxazepino[2,3-c]quinolin-6(7H)-one]: 10.5 nM. On to `Cn1c(=O)c2c(c3cc(Nc4nc(N5C[C@H]6CC[C@@H](C5)O6)ncc4F)ccc31)N[C@@H](C1CC1)C(F)(F)CO2` [Example 13p11, (S)-10-((2-((1R,5S)-8-oxa-3-azabicyclo[3.2.1]octan-3-yl)-5-fluoropyrimidin-4-yl)amino)-2-cyclopropyl-3,3-difluoro-7-methyl-1,2,3,4-tetrahydro-[1,4]oxazepino[2,3-c]quinolin-6(7H)-one], for which the IC50 in experiment [1] was 7.24 nM.

Regarding `CN(C)c1ncc(F)c(Nc2ccc3c(c2)c2c(c(=O)n3C)OCC(F)(F)[C@H](C3CC3)N2)n1` [Example 13p12, (S)-2-cyclopropyl-10-((2-(dimethylamino)-5-fluoropyrimidin-4-yl)amino)-3,3-difluoro-7-methyl-1,2,3,4-tetrahydro-[1,4]oxazepino[2,3-c]quinolin-6(7H)-one], the IC50 in experiment [1] is 19.1 nM. “(S)-10-((5-chloro-2-((3R,4S)-3-(hydroxymethyl)-4-methylpyrrolidin-1-yl)pyrimidin-4-yl)amino)-2-cyclopropyl-3,3-difluoro-7-methyl-1,2,3,4-tetrahydro-[1,4]oxazepino[2,3-c]quinolin-6(7H)-one:(S)-10-((5-chloro-2-((3S,4R)-3-(hydroxymethyl)-4-methylpyrrolidin-1-yl)pyrimidin-4-yl)amino)-2-cyclopropyl-3,3-difluoro-7-methyl-1,2,3,4-tetrahydro-[1,4]oxazepino[2,3-c]quinolin-6(7H)-one (1:1) [Example 11j]”: the “HTRF avg pIC50” value in experiment [1] was 8.22.

On to “(S)-10-((5-chloro-2-((3R,5R)-3-fluoro-5-hydroxypiperidin-1-yl)pyrimidin-4-yl)amino)-2-cyclopropyl-3,3-difluoro-7-methyl-1,2,3,4-tetrahydro-[1,4]oxazepino[2,3-c]quinolin-6(7H)-one:(S)-10-((5-chloro-2-((3S,5S)-3-fluoro-5-hydroxypiperidin-1-yl)pyrimidin-4-yl)amino)-2-cyclopropyl-3,3-difluoro-7-methyl-1,2,3,4-tetrahydro-[1,4]oxazepino[2,3-c]quinolin-6(7H)-one(1:1) [Example 11g]”, for which the “HTRF avg pIC50” value in experiment [1] came out at 8.28. Still for that read-out and setting: then “(S)-10-((5-chloro-2-((R)-3,3-difluoro-5-hydroxypiperidin-1-yl)pyrimidin-4-yl)amino)-2-cyclopropyl-3,3-difluoro-7-methyl-1,2,3,4-tetrahydro-[1,4]oxazepino[2,3-c]quinolin-6(7H)-one:(S)-10-((5-chloro-2-((S)-3,3-difluoro-5-hydroxypiperidin-1-yl)pyrimidin-4-yl)amino)-2-cyclopropyl-3,3-difluoro-7-methyl-1,2,3,4-tetrahydro-[1,4]oxazepino[2,3-c]quinolin-6(7H)-one (1:1) [Example 12e]”, with 8.32; and “(S)-10-((5-chloro-2-((R)-4,4-difluoro-3-methylpiperidin-1-yl)pyrimidin-4-yl)amino)-2-cyclopropyl-3,3-difluoro-7-methyl-1,2,3,4-tetrahydro-[1,4]oxazepino[2,3-c]quinolin-6(7H)-one or (S)-10-((5-chloro-2-((S)-4,4-difluoro-3-methylpiperidin-1-yl)pyrimidin-4-yl)amino)-2-cyclopropyl-3,3-difluoro-7-methyl-1,2,3,4-tetrahydro-[1,4]oxazepino[2,3-c]quinolin-6(7H)-one [Example 14b]”, with 7.33.
